Activity calls are given as the source filed them. No cut-off for these calls is given here.
Legend:
[1] = tested on: K562; assay: Induction of apoptosis in human K562 cells assessed as apoptosis at 3.4 uM after 24 to 72 hrs using annexin V/PI followed by flow cytometry; format: functional, cell-based; details: time 24-72 hrs
[2] = species on record: Danio rerio; assay: Toxicity in zebrafish embryos assessed as small eyes at 50 uM after 72 hrs by visual analysis (reference value: 10%); format: organism-based, Embryo; details: in vivo
[3] = species on record: Danio rerio; assay: Toxicity in zebrafish embryos assessed as brain hemorrhage at 0.005 uM after 72 hrs by visual analysis (reference value: 0%); format: organism-based; details: in vivo
[4] = species on record: Danio rerio; assay: Toxicity in zebrafish embryos assessed as small eyes at 5 uM after 72 hrs by visual analysis (reference value: 10%); format: organism-based, Embryo; details: in vivo
[5] = Nonlethal toxicity in zebrafish embryos assessed as embryo survival at 50 uM after 72 hrs by visual analysis (reference value: 100%); format: organism-based, Danio rerio; details: in vivo
[6] = tested on: Danio rerio; assay: Toxicity in zebrafish embryos assessed as yolk sac edema at 0.5 uM after 72 hrs by visual analysis (reference value: 0%); format: organism-based, Embryo; details: in vivo
[7] = Nonlethal toxicity in zebrafish embryos assessed as embryo survival at 0.005 uM after 72 hrs by visual analysis (reference value: 100%); format: organism-based, Danio rerio; details: in vivo
[8] = tested on: Danio rerio; assay: Toxicity in zebrafish embryos assessed as yolk sac edema at 0.05 uM after 72 hrs by visual analysis (reference value: 0%); format: organism-based, Embryo; details: in vivo
[9] = species on record: Danio rerio; assay: Toxicity in zebrafish embryos assessed as malformation of head at 50 uM after 72 hrs by visual analysis (reference value: 0%); format: organism-based; details: in vivo
[10] = species on record: Danio rerio; assay: Toxicity in zebrafish embryos assessed as malformation of head at 5 uM after 72 hrs by visual analysis (reference value: 0%); format: organism-based; details: in vivo
[11] = species on record: Danio rerio; assay: Toxicity in zebrafish embryos assessed as head necrosis at 50 uM after 72 hrs by visual analysis (reference value: 0%); format: organism-based; details: in vivo
[12] = species on record: Danio rerio; assay: Toxicity in zebrafish embryos assessed as tail necrosis at 0.5 uM after 72 hrs by visual analysis (reference value: 0%); format: organism-based; details: in vivo
[13] = tested on: Danio rerio; assay: Toxicity in zebrafish embryos assessed as pericardial edema at 0.5 uM after 72 hrs by visual analysis (reference value: 10%); format: organism-based, Embryo; details: in vivo
[14] = species on record: Danio rerio; assay: Toxicity in zebrafish embryos assessed as head necrosis at 0.005 uM after 72 hrs by visual analysis (reference value: 0%); format: organism-based; details: in vivo
[15] = species on record: Danio rerio; assay: Toxicity in zebrafish embryos assessed as brain hemorrhage at 0.05 uM after 72 hrs by visual analysis (reference value: 0%); format: organism-based; details: in vivo
[16] = species on record: Danio rerio; assay: Toxicity in zebrafish embryos assessed as brain hemorrhage at 0.5 uM after 72 hrs by visual analysis (reference value: 0%); format: organism-based; details: in vivo
[17] = species on record: Danio rerio; assay: Toxicity in zebrafish embryos assessed as cardiac teratogenesis/necrosis at 0.005 uM after 72 hrs by visual analysis (reference value: 0%); format: organism-based, Embryo; details: in vivo
[18] = species on record: Danio rerio; assay: Toxicity in zebrafish embryos assessed as malformation of head at 0.05 uM after 72 hrs by visual analysis (reference value: 0%); format: organism-based; details: in vivo
[19] = species on record: Danio rerio; assay: Toxicity in zebrafish embryos assessed as head necrosis at 0.05 uM after 72 hrs by visual analysis (reference value: 0%); format: organism-based; details: in vivo
[20] = species on record: Danio rerio; assay: Toxicity in zebrafish embryos assessed as teratogenesis at 0.005 uM after 72 hrs by visual analysis (reference value: 0%); format: organism-based, Embryo; details: in vivo
[21] = tested on: Danio rerio; assay: Toxicity in zebrafish embryos assessed as pericardial edema at 0.05 uM after 72 hrs by visual analysis (reference value: 10%); format: organism-based, Embryo; details: in vivo
[22] = Nonlethal toxicity in zebrafish embryos assessed as embryo survival at 0.5 uM after 72 hrs by visual analysis (reference value: 100%); format: organism-based, Danio rerio; details: in vivo
[23] = tested on: HPBALL; assay: Anticancer activity against human HPBALL cells assessed as reduction in total number of colony forming units at 5 uM measured after 24 hrs by colony formation assay; format: functional, cell-based
[24] = species on record: Danio rerio; assay: Toxicity in zebrafish embryos assessed as cardiac teratogenesis/necrosis at 0.05 uM after 72 hrs by visual analysis (reference value: 0%); format: organism-based, Embryo; details: in vivo
[25] = species on record: Danio rerio; assay: Toxicity in zebrafish embryos assessed as tail necrosis at 5 uM after 72 hrs by visual analysis (reference value: 0%); format: organism-based; details: in vivo
[26] = species on record: Danio rerio; assay: Toxicity in zebrafish embryos assessed as brain hemorrhage at 5 uM after 72 hrs by visual analysis (reference value: 0%); format: organism-based; details: in vivo
[27] = Nonlethal toxicity in zebrafish embryos assessed as embryo survival at 0.05 uM after 72 hrs by visual analysis (reference value: 100%); format: organism-based, Danio rerio; details: in vivo
[28] = species on record: Danio rerio; assay: Toxicity in zebrafish embryos assessed as head necrosis at 5 uM after 72 hrs by visual analysis (reference value: 0%); format: organism-based; details: in vivo
[29] = species on record: Danio rerio; assay: Toxicity in zebrafish embryos assessed as small eyes at 0.5 uM after 72 hrs by visual analysis (reference value: 10%); format: organism-based, Embryo; details: in vivo
[30] = tested on: HPBALL; assay: Anticancer activity against human HPBALL cells assessed as reduction in size of colony at 5 uM measured after 24 hrs by colony formation assay; format: functional, cell-based
[31] = tested on: HPBALL; assay: Induction of apoptosis in human HPBALL cells assessed as annexin V positive cells at 5 uM after 48 hrs by annexin V/PI staining measured by flow cytometry; format: functional, cell-based
[32] = species on record: Danio rerio; assay: Toxicity in zebrafish embryos assessed as tail necrosis at 50 uM after 72 hrs by visual analysis (reference value: 0%); format: organism-based; details: in vivo
[33] = species on record: Danio rerio; assay: Toxicity in zebrafish embryos assessed as head necrosis at 0.5 uM after 72 hrs by visual analysis (reference value: 0%); format: organism-based; details: in vivo
[34] = species on record: Danio rerio; assay: Toxicity in zebrafish embryos assessed as malformation of tail at 0.005 uM after 72 hrs by visual analysis (reference value: 5%); format: organism-based; details: in vivo
[35] = tested on: Danio rerio; assay: Toxicity in zebrafish embryos assessed as pericardial edema at 0.005 uM after 72 hrs by visual analysis (reference value: 10%); format: organism-based, Embryo; details: in vivo
[36] = tested on: Danio rerio; assay: Toxicity in zebrafish embryos assessed as pericardial edema at 50 uM after 72 hrs by visual analysis (reference value: 10%); format: organism-based, Embryo; details: in vivo
[37] = species on record: Danio rerio; assay: Toxicity in zebrafish embryos assessed as small eyes at 0.05 uM after 72 hrs by visual analysis (reference value: 10%); format: organism-based, Embryo; details: in vivo
[38] = tested on: Danio rerio; assay: Toxicity in zebrafish embryos assessed as yolk sac edema at 50 uM after 72 hrs by visual analysis (reference value: 0%); format: organism-based, Embryo; details: in vivo
[39] = species on record: Danio rerio; assay: Toxicity in zebrafish embryos assessed as teratogenesis at 0.05 uM after 72 hrs by visual analysis (reference value: 0%); format: organism-based, Embryo; details: in vivo
[40] = species on record: Danio rerio; assay: Toxicity in zebrafish embryos assessed as malformation of tail at 0.05 uM after 72 hrs by visual analysis (reference value: 5%); format: organism-based; details: in vivo
[41] = species on record: Danio rerio; assay: Toxicity in zebrafish embryos assessed as brain hemorrhage at 50 uM after 72 hrs by visual analysis (reference value: 0%); format: organism-based; details: in vivo
[42] = species on record: Danio rerio; assay: Toxicity in zebrafish embryos assessed as cardiac teratogenesis/necrosis at 0.5 uM after 72 hrs by visual analysis (reference value: 0%); format: organism-based, Embryo; details: in vivo

Question: With `CCc1c(C(=O)Nc2cc(/C=C/C(=O)NO)ccc2OC)[nH]c(C)c1C(C)=O` as the molecule, how does the Activity [1] read?
Answer: Active

Question: Which results are given for `Cc1[nH]c(C(=O)Nc2cc(S(=O)(=O)N3CCOCC3)ccc2OCCCCCCCC(=O)NO)c2c1C(=O)CCCC2`?
Answer: Activity [2]: 10%; Activity [3]: 0%; Activity [4]: 5%; survival at 72 h, 50 µM [5]: 100%; Activity [6]: 15%; survival at 72 h, 0.005 µM [7]: 100%; Activity [8]: 5%; Activity [9]: 15%; Activity [10]: 0%; Activity [11]: 15%; Activity [12]: 0%; Activity [13]: 20%; Activity [14]: 15%; Activity [15]: 0%; Activity [16]: 0%; Activity [17]: 0%; Activity [18]: 0%; Activity [19]: 0%; Activity [20]: 15%; Activity [21]: 10%; survival at 72 h, 0.5 µM [22]: 100%; Activity [23]: Active; Activity [24]: 0%; Activity [25]: 0%; Activity [26]: 0%; survival at 72 h, 0.05 µM [27]: 95%; Activity [28]: 0%; Activity [29]: 15%; Activity [30]: Active; Activity [31]: Active; Activity [32]: 15%; Activity [33]: 15%; Activity [34]: 5%; Activity [35]: 15%; Activity [36]: 15%; Activity [37]: 5%; Activity [38]: 10%; Activity [39]: 10%; Activity [40]: 0%; Activity [41]: 0%; Activity [42]: 0%

— ChEMBL document CHEMBL5055650, “4-Acyl Pyrrole Capped HDAC Inhibitors: A New Scaffold for Hybrid Inhibitors of BET Proteins and Histone Deacetylases as Antileukemia Drug Leads” (J Med Chem, 2021)
